# From patent US8735364B2, “Antisense modulation of apolipoprotein B expression” (Genzyme Corporation, priority 2001, dated 2014)
# What was measured:
# Format in all cases: in vivo, mouse
# [1] = Glucose, cholesterol and lipoprotein levels in ApoE knockout mice; details: for Lipoprotein Levels HDL: Control 51; for Glucose Levels: Control 225; for Lipoprotein Levels LDL: Control 525; for Lipoprotein Levels VLDL: Control 1190; for Cholesterol Levels: Control 1750
# Protocol: (§1) Female ApoE knockout mice ranged in age from 5 to 7 weeks and were placed on a normal diet for 2 weeks before study initiation. ApoE knockout mice were then fed ad libitum a 60% fat diet, with 0.15% added cholesterol to induce dyslipidemia and obesity. Control animals were maintained on a high-fat diet with no added cholesterol After overnight fasting, mice from each group were dosed intraperitoneally every three days with saline, 50 mg/kg of a control antisense oligonucleotide (ISIS 29837 […]; SEQ ID NO. 124) or 5, 25 or 50 mg/kg ISIS 147764 (SEQ ID No: 109) for six weeks.
# (§2) At study termination and forty eight hours after the final injections, animals were sacrificed and evaluated for target mRNA levels in liver by RT-PCR methods verified by Northern Blot analysis, glucose levels, cholesterol and lipid levels by HPLC separation methods and triglyceride and liver enzyme levels (perfomed by LabCorp Preclinical Services; San Diego, Calif.). Data are normalized to saline controls.
# [2] = Serum AST and ALT levels, high fat fed mice, 6 week study; details: for ALT levels / AST levels: 6 weeks; for ALT levels: saline control 25 IU/L; for AST levels: saline control 65 IU/L
# Protocol: (§3) Male C57BL/6 mice (n=8) receiving a high fat diet (60% kcal fat) were evaluated over the course of 6 weeks for the effects of treatment with the antisense oligonucleotide, ISIS 147764. Control animals received saline treatment (50 mg/kg). A subset of animals received a daily oral dose (20 mg/kg) atorvastatin calcium (Lipitor®, Pfizer Inc.). All mice, except atorvastatin-treated animals, were dosed intraperitoneally every three days (twice a week), after fasting overnight, with 5, 25, 50 mg/kg ISIS 147764 (SEQ ID No: 109) or saline (50 mg/kg) for six weeks. Serum cholesterol and lipoproteins were analyzed at 0, 2 and 6 week interim timepoints. At study termination, animals were sacrificed 48 hours after the final injections and evaluated for levels of target mRNA levels in liver, cholesterol, lipoprotein, triglyceride, liver enzyme (AST and ALT) and serum glucose levels as well as body, liver, spleen and fat pad weights.
# (§4) Male C57BL/6 mice (n=8) receiving a high fat diet (60% kcal fat) were evaluated over the course of 6 weeks for the effects of ISIS 147764 on liver enzyme (AST and ALT) levels. Control animals received saline treatment (50 mg/kg). Mice were dosed intraperitoneally every three days (twice a week), after fasting overnight, with 5, 25, 50 mg/kg ISIS 147764 (SEQ ID No: 109) or saline (50 mg/kg) for six weeks.
# Values in the table are expressed as IU/L. Increased levels of the liver enzymes ALT and AST indicate toxicity and liver damage.
# apolipoprotein B mRNA [3] = experiment: Target mRNA levels in liver of ApoE knockout mice, RT-PCR; details: six weeks
# Protocol: as §1, §2
# apolipoprotein B mRNA [4] = experiment: Target mRNA levels in liver, lean vs high fat fed C57BL/6 mice; details: 50 mg/kg i.p. every three days, six weeks
# Protocol: (§5) Male C57BL/6 mice were divided into two matched groups; (1) wild-type control animals (lean animals) and (2) animals receiving a high fat diet (60% kcal fat). Control animals received saline treatment and were maintained on a normal rodent diet. After overnight fasting, mice from each group were dosed intraperitoneally every three days with saline or 50 mg/kg ISIS 147764 (SEQ ID No: 109) for six weeks. At study termination and forty eight hours after the final injections, animals were sacrificed and evaluated for target mRNA levels in liver, cholesterol and triglyceride levels, liver enzyme levels and serum glucose levels.
# apolipoprotein B mRNA [5] = experiment: Target mRNA levels in liver, high fat fed mice, 6 week timecourse study; details: high fat fed C57BL/6 mice, six weeks
# Protocol: as §3
# as §4, with “mRNA expression.” for “liver enzyme (AST and ALT) levels.”, “weeks. At study termination, animals were sacrificed 48 hours after the final injections and evaluated for levels of target mRNA levels in liver.” for “weeks.”
# [6] = Serum cholesterol and triglyceride levels, high fat fed mice, 6 week study; details: for Percent Inhibition of cholesterol levels: normalized to saline; for triglycerides / serum cholesterol: study end; for triglycerides: control 115 mg/dL; for serum cholesterol: control 240 mg/dL
# Protocol: as §3
# as §4, with “serum cholesterol” for “liver enzyme (AST”, “triglyceride” for “ALT)”
# Values in the table are expressed as percent inhibition and are normalized to the saline control.
# In addition to serum cholesterol, at study termination, animals were sacrificed 48 hours after the final injections and evaluated for triglyceride levels.
# [7] = Liver enzyme levels, lean vs high fat fed C57BL/6 mice; details: for Liver Enzymes ALT Percent Change / Liver Enzymes AST Percent Change: 50 mg/kg i.p. every three days, six weeks
# Protocol: as §5
sequence,measurement,setting,value
"GTCCCTGAAGATGTCAATGC (2'-MOE gapmer with phosphorothioates, pattern not given here) [ISIS 147764, 2′-MOE gapmer phosphorothioate oligonucleotide to mouse apolipoprotein B]",Lipoprotein Levels HDL,[1]; 5 mg/kg,49 mg/dL
same,Glucose Levels,[1]; 5 mg/kg,195 mg/dL
same,Lipoprotein Levels LDL,[1]; 5 mg/kg,475 mg/dL
same,Lipoprotein Levels VLDL,[1]; 5 mg/kg,1111 mg/dL
same,Cholesterol Levels,[1]; 5 mg/kg,1630 mg/dL
same,Lipoprotein Levels HDL,[1]; 25 mg/kg,62 mg/dL
same,Glucose Levels,[1]; 25 mg/kg,209 mg/dL
same,Lipoprotein Levels LDL,[1]; 25 mg/kg,500 mg/dL
same,Lipoprotein Levels VLDL,[1]; 25 mg/kg,1194 mg/dL
same,Cholesterol Levels,[1]; 25 mg/kg,1750 mg/dL
same,Lipoprotein Levels HDL,[1]; 50 mg/kg,61 mg/dL
same,Glucose Levels,[1]; 50 mg/kg,191 mg/dL
same,Lipoprotein Levels LDL,[1]; 50 mg/kg,325 mg/dL
same,Lipoprotein Levels VLDL,[1]; 50 mg/kg,1113 mg/dL
same,Cholesterol Levels,[1]; 50 mg/kg,1490 mg/dL
same,ALT levels,[2]; 5 mg/kg,50 IU/L
same,AST levels,[2]; 5 mg/kg,105 IU/L
same,ALT levels,[2]; 25 mg/kg,70 IU/L
same,AST levels,[2]; 25 mg/kg,70 IU/L
same,ALT levels,[2]; 50 mg/kg,100 IU/L
same,AST levels,[2]; 50 mg/kg,80 IU/L
same,change in AST levels over the duration of the study compared to saline controls,"[2]; 5, 25 and 50 mg/kg",no significant change
same,mRNA Percent Inhibition,apolipoprotein B mRNA [3]; 5 mg/kg i.p. every three days,2%
same,mRNA Percent Inhibition,apolipoprotein B mRNA [3]; 25 mg/kg i.p. every three days,42%
same,mRNA Percent Inhibition,apolipoprotein B mRNA [3]; 50 mg/kg i.p. every three days,70%
same,mRNA Percent Change,apolipoprotein B mRNA [4]; high fat fed (60% kcal fat) C57BL/6 mice,−87%
same,mRNA Percent Change,apolipoprotein B mRNA [4]; lean C57BL/6 mice,−73%
same,reduction of target mRNA levels in liver,apolipoprotein B mRNA [5]; 5 mg/kg i.p. every three days,15%
same,reduction of target mRNA levels in liver,apolipoprotein B mRNA [5]; 25 mg/kg i.p. every three days,75%
same,reduction of target mRNA levels in liver,apolipoprotein B mRNA [5]; 50 mg/kg i.p. every three days,88%
same,Percent Inhibition of cholesterol levels,"[6]; 5 mg/kg, 0 weeks",0%
same,Percent Inhibition of cholesterol levels,"[6]; 5 mg/kg, 2 weeks",5%
same,Percent Inhibition of cholesterol levels,"[6]; 5 mg/kg, 6 weeks",10%
same,triglycerides,[6]; 5 mg/kg,125 mg/dL
same,serum cholesterol,[6]; 5 mg/kg,225 mg/dL
same,Percent Inhibition of cholesterol levels,"[6]; 25 mg/kg, 0 weeks",0%
same,Percent Inhibition of cholesterol levels,"[6]; 25 mg/kg, 2 weeks",12%
same,Percent Inhibition of cholesterol levels,"[6]; 25 mg/kg, 6 weeks",45%
same,triglycerides,[6]; 25 mg/kg,150 mg/dL
same,serum cholesterol,[6]; 25 mg/kg,125 mg/dL
same,Percent Inhibition of cholesterol levels,"[6]; 50 mg/kg, 0 weeks",0%
same,Percent Inhibition of cholesterol levels,"[6]; 50 mg/kg, 2 weeks",20%
same,Percent Inhibition of cholesterol levels,"[6]; 50 mg/kg, 6 weeks",55%
same,triglycerides,[6]; 50 mg/kg,85 mg/dL
same,serum cholesterol,[6]; 50 mg/kg,110 mg/dL
same,Liver Enzymes ALT Percent Change,[7]; high fat fed C57BL/6 mice,Slight
same,Liver Enzymes AST Percent Change,[7]; high fat fed C57BL/6 mice,Slight
same,Liver Enzymes ALT Percent Change,[7]; lean C57BL/6 mice,No
same,Liver Enzymes AST Percent Change,[7]; lean C57BL/6 mice,Slight
same,changes in liver enzyme levels,"[7]; lean and high fat fed C57BL/6 mice, 50 mg/kg",No significant changes
